# According to publication PMC5274652, “Antagonizing Retinoic Acid Receptors Increases Myeloid Cell Production by Cultured Human Hematopoietic Stem Cells” (Archivum Immunologiae et Therapiae Experimentalis, 2016):
# T1: human RARα (Homo sapiens, UniProt P10276)
# T1 construct: made in house
# T1 sequence (P10276 1-462): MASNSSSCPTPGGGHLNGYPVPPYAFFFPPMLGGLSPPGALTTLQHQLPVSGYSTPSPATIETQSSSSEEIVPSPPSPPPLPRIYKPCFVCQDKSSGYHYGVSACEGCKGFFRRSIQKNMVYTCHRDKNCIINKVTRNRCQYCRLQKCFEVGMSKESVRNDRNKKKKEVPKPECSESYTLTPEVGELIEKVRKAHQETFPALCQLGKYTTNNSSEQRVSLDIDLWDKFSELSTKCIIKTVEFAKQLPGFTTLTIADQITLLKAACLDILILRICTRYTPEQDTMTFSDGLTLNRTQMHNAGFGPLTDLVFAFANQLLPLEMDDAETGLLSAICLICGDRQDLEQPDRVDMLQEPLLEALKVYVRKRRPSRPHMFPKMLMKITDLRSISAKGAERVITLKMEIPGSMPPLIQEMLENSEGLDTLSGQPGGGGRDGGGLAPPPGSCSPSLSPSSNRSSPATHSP
# T2: human RARβ (Homo sapiens, UniProt P10826)
# T2 construct: made in house
# T2 sequence (P10826 1-455): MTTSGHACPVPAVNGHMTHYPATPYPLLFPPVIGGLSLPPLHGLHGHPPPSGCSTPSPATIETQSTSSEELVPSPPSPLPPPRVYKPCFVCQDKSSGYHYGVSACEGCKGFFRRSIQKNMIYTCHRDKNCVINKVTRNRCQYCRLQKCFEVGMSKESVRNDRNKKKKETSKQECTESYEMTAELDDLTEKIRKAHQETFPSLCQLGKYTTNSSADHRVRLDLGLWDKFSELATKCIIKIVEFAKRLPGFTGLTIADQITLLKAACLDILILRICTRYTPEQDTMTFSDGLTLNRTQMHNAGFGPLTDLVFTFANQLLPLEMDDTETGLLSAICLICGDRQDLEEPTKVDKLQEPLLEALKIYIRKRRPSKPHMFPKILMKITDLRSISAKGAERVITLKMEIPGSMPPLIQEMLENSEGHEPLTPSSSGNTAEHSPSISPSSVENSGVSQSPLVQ
# T3: human RARγ (Homo sapiens, UniProt P13631)
# T3 construct: made in house
# T3 sequence (P13631 1-454): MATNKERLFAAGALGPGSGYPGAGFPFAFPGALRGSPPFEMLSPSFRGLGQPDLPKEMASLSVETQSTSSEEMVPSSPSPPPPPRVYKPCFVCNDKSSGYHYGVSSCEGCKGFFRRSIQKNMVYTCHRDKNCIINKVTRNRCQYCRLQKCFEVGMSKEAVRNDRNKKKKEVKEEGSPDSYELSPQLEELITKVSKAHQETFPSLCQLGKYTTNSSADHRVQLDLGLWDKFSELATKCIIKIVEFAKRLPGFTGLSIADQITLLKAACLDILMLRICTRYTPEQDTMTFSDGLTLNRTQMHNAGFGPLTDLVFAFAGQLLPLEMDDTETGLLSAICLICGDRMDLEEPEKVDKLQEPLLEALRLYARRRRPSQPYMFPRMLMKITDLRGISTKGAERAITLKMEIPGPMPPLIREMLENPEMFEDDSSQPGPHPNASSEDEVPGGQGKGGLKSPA
# How the values were obtained:
# human RARα = biological target: T1, human RARα; experiment: Competition with [3H]-ATRA binding, nuclear extracts of Sf21 cells expressing RARα; settings: nuclear extracts of baculovirus-infected Sf21 cells, read-out: Binding affinity ED50, RARα
# human RARβ = biological target: T2, human RARβ; experiment: Competition with [3H]-ATRA binding, nuclear extracts of Sf21 cells expressing RARβ; settings: nuclear extracts of baculovirus-infected Sf21 cells, read-out: Binding affinity ED50, RARβ
# human RARγ = biological target: T3, human RARγ; experiment: Competition with [3H]-ATRA binding, nuclear extracts of Sf21 cells expressing RARγ; settings: nuclear extracts of baculovirus-infected Sf21 cells
# NB-4 cells = experiment: Differentiation of NB-4 cells (CD11b/CD14 flow cytometry); type: cell-based, human; settings: 96 h
# Procedure: (§1) NB-4 and KG1 cells were obtained from the German Resource Center for Biological Material (DSMZ GmbH, Braunschweig, Germany). The cells were grown in RPMI-1640 medium supplemented with 10 % fetal bovine serum (FBS), 100 U/ml penicillin, and 100 µg/ml streptomycin (Sigma, St Louis, MO, USA). Cells were grown at 37 °C in 5 % CO2.
# (§2) The expression of differentiation markers at the cell surface was determined by flow cytometry. Differentiation of NB-4 and KG1 cells was measured by staining using the monoclonal antibodies CD11b-FITC and CD14-PE and appropriately labeled isotype controls (all from ImmunoTools, Friesoythe, Germany). Differentiation of human CD34^+ve cells was measured by triple-color staining using various cocktails of phycoerythrin-, fluorescein isothyocyanate-, and PerCP-monoclonal antibodies (from Becton–Dickinson, San Jose, CA, USA). The markers used to identify cell populations were as follows: CD45^+ve leukocytes; CD34^+ve/CD133^+ve HSCs; CD33^+ve/CD13^+ve immature myeloid; CD117^+ve myeloblasts and promyelocytes; CD11b^+ve/CD15^+ve mature myeloid; CD11b^+ve/CD65^+ve neutrophils; CD11b^+ve/CD14^+ve monocytes; glycophorin^+ve A erythroid cells; CD61^+ve megakaryoblasts and platelets; CD2^+ve/CD5^+ve/CD7^+ve T cells and NK cells; CD56^+ve NK cells; CD19^+ve/CD20^+ve B cells; and CD10^+ve B lymphocyte progenitors; and present on mature neutrophils and DR^+ve progenitors and present on mature monocytes. The cells were stained with 1 µl of the fluorescently labeled antibody (or the appropriate control immunoglobulin) for 1 h on ice. Next, they were washed with ice-cold phosphate-buffered saline (PBS) and suspended in 0.5 ml PBS supplemented with 0.1 % bovine serum albumin (Sigma, St Louis, MO, USA) prior to analysis on FACS Calibur flow cytometer (Becton–Dickinson, San Jose, CA, USA). The acquisition parameters were set for an isotype control. Cells were analyzed using a FACSCalibur, and data analysis was performed using the CellQuest Pro software (Becton–Dickinson, San Jose, CA, USA).
# KG1 cells = experiment: Differentiation of KG1 cells (CD11b/CD14 flow cytometry); type: cell-based, human; settings: 96 h
# Procedure: as §1, §2
# CD34^+vehuHSC = experiment: Cell production and lifespan of CD34+ve huHSC-initiated cultures; type: cell-based, human
# Text: (§3) The cells used were CD34^+ve cells purified from the blood of normal human adult donors and post-mobilization of stem cells to the blood. Cells obtained and purified in this manner are used routinely by the National Blood Service Stem Cell Laboratory in Birmingham for bone marrow transplantation. Ethics approval for the use of adult human blood-mobilized stem cells (CD34^+vehuHSC) was from the West Midlands Research Ethics Committee. Informed consent was obtained by the regional National Blood Service Stem Cell Laboratory in Birmingham. CD34^+ve cells were purified to 99 % CD34^+ve, 97 % CD133^+ve, >99 % lineage^−ve (n = 15) using an anti-CD34 monoclonal antibody, immunomagnetic beads, and a CliniMACS magnetic separator. Purified cells were plated at 5 × 10^5 cells/ml in microtiter wells in 200 μl of either RPMI-1640 medium (R and D Systems, Abingdon, UK) or HPGM^TM hematopoietic growth medium (Lonza, UK) containing either 10 % FBS or 10 % human serum, antibiotics (100 U/ml penicillin and 100 μg/ml streptomycin) and stem cell factor (SCF), interleukin (IL)-3, and granulocyte-colony stimulating factor (G-CSF) (all from R and D Systems Abingdon, UK) as stated in the results. Cultures were fed every 2–3 days (with fresh compound), split into microtiter wells, and then expanded into 2 ml Costar wells to maintain a cell density of between 2.5 and 10 × 10^5 cells/ml. Cells were grown at 37 °C in 5 % CO2. Viable cells were enumerated by phase contrast microscopy (400× magnification).
# as §2
# [1] = tested on: lineage^−ve/CD133^+ve/CD34^+vehuHSC; experiment: Ex vivo expansion of lineage-ve/CD133+ve/CD34+ve huHSC; type: cell-based, human; settings: all 15 donors; control 8–10-fold
# Text: as §3, with “Viable cells were enumerated by phase contrast microscopy (400× magnification).” left out
# The expression of differentiation markers at the cell surface was determined by flow cytometry. Differentiation of NB-4 and KG1 cells was measured by staining using the monoclonal antibodies CD11b-FITC and CD14-PE and appropriately labeled isotype controls (all from ImmunoTools, Friesoythe, Germany). Differentiation of human CD34^+ve cells was measured by triple-color staining using various cocktails of phycoerythrin-, fluorescein isothyocyanate-, and PerCP-monoclonal antibodies (from Becton–Dickinson, San Jose, CA, USA). […] Cells were analyzed using a FACSCalibur, and data analysis was performed using the CellQuest Pro software (Becton–Dickinson, San Jose, CA, USA).
molecule,measurement,setting,value
CC1(C)CCC(C)(C)c2c1cc(C(=O)Nc1cc(F)c(C(=O)O)c(F)c1)c(O)c2Cl [AGN195183],IC50,human RARα,20.1 nM
same,IC50,human RARβ,> 5000 nM
same,IC50,"human RARγ; read-out: Binding affinity ED50, RARγ",> 5000 nM
same,CD11b+ve/CD14+ve cells (monocyte differentiation),"NB-4 cells; NB-4 cells, 100 nM combined with 10 nM 1,25D",40%
same,CD11b+ve/CD14−ve cells (neutrophil differentiation),"NB-4 cells; NB-4 cells, 100 nM, alone",40%
same,CD11b+ve/CD14+ve cells (monocyte differentiation),"KG1 cells; KG1 cells, 100 nM combined with 10 nM 1,25D",18%
"C=C1/C(=C\C=C2/CCC[C@]3(C)[C@@H]([C@H](C)CCCC(C)(C)O)CC[C@@H]23)C[C@@H](O)C[C@@H]1O [1,25D, 1α,25-Dihydroxyvitamin D3]",CD11b+ve/CD14+ve cells (monocyte differentiation),"NB-4 cells; NB-4 cells, 10 nM, alone",~ 6%
CCOc1c(Br)cc(C(=O)Nc2ccc(C(=O)O)cc2)cc1C(=O)c1ccc(C)cc1 [AGN196996],IC50,human RARα,3.9 nM
same,IC50,human RARβ,4036 nM
same,"Binding affinity ED50, RARγ",human RARγ,">10,000 nM"
same,effect on differentiation of NB-4 cells,"NB-4 cells; 100 nM with 10 nM 1,25D, compared with 1,25D alone",did not have an appreciable effect
same,effect on differentiation of NB-4 cells,"NB-4 cells; 100 nM, used alone",no effect
same,effect on differentiation of KG1 cells,"KG1 cells; 100 nM together with 10 nM 1,25D",no effect
same,effect on differentiation of KG1 cells,"KG1 cells; 100 nM, used alone",no effect
same,cells (largely myeloid) produced versus γ antagonist-treated and control cultures,CD34^+vehuHSC; by day 20,around fourfold more cells
same,prolonged lifespan of cultures,"CD34^+vehuHSC; human HSCs supplemented with stem cell factor ± interleukin 3, abstract",up to 55 days
same,expansion of lineage−ve/CD133+ve/CD34+ve cells,[1],around 20 fold
"granulocyte-colony stimulating factor (protein, UniProt P09919 31-207, looked up, growth factor added at 30 ng/ml as benchmark for optimal generation of myeloid cells) Granulocyte …: TPLGPASSLPQSFLLKCLEQVRKIQGDGAALQEKLVSECATYKLCHPEELVLLGHSLGIPWAPLSSCPSQALQLAGCLSQLHSGLFLYQGLLQALEGISPELGPTLDTLQLDVADFATTIWQQMEELGMAPALQPTQGAMPAFASAFQRRAGGVLVASHLQSFLEVSYRVLRHLAQP",cells produced versus control cultures,"CD34^+vehuHSC; 30 ng/ml, by day 30",fourfold more cells
same,time for which cultures were maintained,"CD34^+vehuHSC; 30 ng/ml, 10 % FBS, 100 ng/ml SCF, 5 ng/ml IL-3",≤ 55 days
